Experiment [1] concerns early gravidity in the rat. Description: Inhibition of early gravidity (early abortive effect) in the rat after subcutaneous application from the 5th to 7th day of pregnancy. Type of experiment: in vivo. As to conditions: for complete gravidity inhibition (N*/N) / complete gravidity inhibition (%) / ED 50 (complete gravidity inhibition): d5-d7; for complete gravidity inhibition (N*/N): N* females not pregnant / N inseminated females; for complete gravidity inhibition (N*/N) / complete gravidity inhibition (%): empty uteri; for ED 50 (complete gravidity inhibition): s.c., graphic determination. The protocol:
Early abortive effect of RU 486 and J 914 (Example 1) and
J 900 (Example 2) in the rat after subcutaneous
application from the 5th to 7th day of pregnancy (dose
0.2 ml/animal/day in benzylbenzoate/castor oil
N number of inseminated females
N* number of females not pregnant
^++ graphic determination
Inhibition of early gravidity in the rat:
Female rats are mated in the pro-oestrus. If semen is found in the vaginal smear on the next day, this day is counted as day 1 (=d1) of the gravidity. Treatment with the test substance or vehicle is applied on d5-d7, autopsy is carried out on d9. The substances are injected subcutaneously in 0.2 ml of vehicle (benzyl benzoate/castor oil 1+4).

The target in the next experiment is T1, glucocorticoid receptor (Rattus norvegicus, UniProt P06536).
T1 construct: receptors in the cytosol from animal target organs; from tissue; host or cells: thymus cytosol of adrenalectomized rat
T1 sequence (P06536 1-795): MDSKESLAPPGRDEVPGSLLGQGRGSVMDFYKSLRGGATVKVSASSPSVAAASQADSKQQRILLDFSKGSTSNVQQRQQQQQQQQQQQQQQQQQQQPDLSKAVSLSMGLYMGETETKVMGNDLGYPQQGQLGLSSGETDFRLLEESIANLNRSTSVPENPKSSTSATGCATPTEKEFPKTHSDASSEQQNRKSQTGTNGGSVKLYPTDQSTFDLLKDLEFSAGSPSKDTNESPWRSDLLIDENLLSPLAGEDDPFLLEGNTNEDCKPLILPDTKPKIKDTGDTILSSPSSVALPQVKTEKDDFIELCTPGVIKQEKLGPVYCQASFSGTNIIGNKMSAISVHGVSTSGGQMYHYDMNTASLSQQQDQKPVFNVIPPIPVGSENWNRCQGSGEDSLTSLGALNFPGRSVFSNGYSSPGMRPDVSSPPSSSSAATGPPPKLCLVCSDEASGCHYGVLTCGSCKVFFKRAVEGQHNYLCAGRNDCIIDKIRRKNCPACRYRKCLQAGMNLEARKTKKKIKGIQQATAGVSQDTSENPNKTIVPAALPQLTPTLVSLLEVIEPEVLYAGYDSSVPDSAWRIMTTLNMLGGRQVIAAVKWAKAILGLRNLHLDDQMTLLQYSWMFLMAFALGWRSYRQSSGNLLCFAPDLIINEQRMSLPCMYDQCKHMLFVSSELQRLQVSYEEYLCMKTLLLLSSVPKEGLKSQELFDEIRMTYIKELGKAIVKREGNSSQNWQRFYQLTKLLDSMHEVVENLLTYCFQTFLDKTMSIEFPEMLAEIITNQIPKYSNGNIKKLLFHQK
Description: Receptor bonding affinity: competitive bonding of 3H-dexamethasone and test compound to glucocorticoid receptor in thymus cytosol of the adrenalectomized rat. The experiment is classed as binding. The conditions noted are these: dexamethasone = 100%; tracer 3H-dexamethasone 20 nM; 18 hours at 0-4 °C; quotient of IC50 values x 100%. As to the method:
Measurement of bonding affinity for receptors
Receptor bonding affinity was determined by competitive bonding of a specifically binding ^3 H labelled hormone (tracer) and the compound to be tested to receptors in the cytosol from animal target organs. It was tried to obtain receptor saturation and a balanced reaction. The following incubation conditions were selected:
Glucocorticoid receptor: thymus cytosol of the adrenalectomized rat, thymi kept at -30° C., buffer: TED. Tracer: ^3 H-dexamethasone, 20 nM; reference substance: dexamethasone.
After an incubation period of 18 hours at 0°-4° C., bonded and free steroid was separated by mixing in active carbon/dextrane (1%/0.1%), centrifuging off and measuring the bonded ^3 H activity in the supernatant.
The IC50 for the compound to be tested and for the reference substance were determined from measurements in series of concentrations.

Take `COC[C@]1(OC)CC[C@H]2[C@@H]3CCC4=CC(=O)CCC4=C3[C@@H](c3ccc(C=NOC(C)=O)cc3)C[C@@]21C` [Example 1, 11β-[4-(acetyloximinomethyl)phenyl]-17β-methoxy-17α-methoxymethyl-estra-4,9-diene-3-on]: the “complete gravidity inhibition (N*/N)” value is listed as 0/6 in experiment [1] (0.1 mg/animal/day s.c.), 1/5 in experiment [1] (0.3 mg/animal/day s.c.), 7/10 in experiment [1] (1.0 mg/animal/day s.c.) and 5/5 in experiment [1] (3.0 mg/animal/day s.c.). Besides, the “complete gravidity inhibition (%)” value in experiment [1] (0.1 mg/animal/day s.c.) is 0%; in experiment [1] (0.3 mg/animal/day s.c.) it was 20%; in experiment [1] (1.0 mg/animal/day s.c.), 70%; in experiment [1] (3.0 mg/animal/day s.c.) it was 100%. Further, the “ED 50 (complete gravidity inhibition)” value in experiment [1] is given as 0.6 mg/animal/day. For the same compound, the “Relative molar bonding affinity (RBA) for the glucocorticoid receptor” value (from here on “Relative molar bonding affinity (RBA)”) on glucocorticoid receptor is recorded as 73%.
Turning to `CCOC(=O)ON=Cc1ccc([C@H]2C[C@@]3(C)[C@@H](CC[C@]3(COC)OC)[C@@H]3CCC4=CC(=O)CCC4=C32)cc1` [Example 2, 11β-[4-(ethoxycarbonyloximinomethyl)phenyl]-17β-methoxy-17α-methoxymethyl-estra-4,9-diene-3-on], the results for the “complete gravidity inhibition (N*/N)” value in experiment [1] (0.3 mg/animal/day s.c.) and in experiment [1] (1.0 mg/animal/day s.c.) were 0/5 and 9/10, respectively. Further, the entries for the “complete gravidity inhibition (%)” value in experiment [1] (0.3 mg/animal/day s.c.) and in experiment [1] (1.0 mg/animal/day s.c.) were 0% and 90%, respectively. Besides, in experiment [1] (as compared to RU 486), the “inhibition capability of nidation, in words” value is recorded as “superior inhibition capability of nidation”. In addition, the “ED 50 (complete gravidity inhibition)” value in experiment [1] amounted to 0.6 mg/animal/day. Further, on glucocorticoid receptor, the “Relative molar bonding affinity (RBA)” value was found to be 66%.
Turning to `CC#C[C@]1(O)CC[C@H]2[C@@H]3CCC4=CC(=O)CCC4=C3[C@@H](c3ccc(N(C)C)cc3)C[C@@]21C` [RU 486, reference compound], the entries for the “complete gravidity inhibition (N*/N)” value in experiment [1] (0.3 mg/animal/day s.c.), in experiment [1] (1.0 mg/animal/day s.c.) and in experiment [1] (3.0 mg/animal/day s.c.) were 0/5, 2/5 and 5/5, respectively. For the same compound, the results for the “complete gravidity inhibition (%)” value in experiment [1] (0.3 mg/animal/day s.c.), in experiment [1] (1.0 mg/animal/day s.c.) and in experiment [1] (3.0 mg/animal/day s.c.) were 0%, 40% and 100%, respectively. Also, the “ED 50 (complete gravidity inhibition)” value in experiment [1] came out at 1.1 mg/animal/day. At glucocorticoid receptor, the “Relative molar bonding affinity (RBA)” value is reported as 685%.
`CN(C)c1ccc([C@H]2C[C@]3(C)[C@@H](CC[C@]3(O)CCCO)[C@@H]3CCC4=CC(=O)CCC4=C32)cc1` [ZK 98299, reference compound]: the “Relative molar bonding affinity (RBA)” value at glucocorticoid receptor came out at 39%.

These data come from US5576310A, “11-benzaldoxime-17β-methoxy-17α-methoxymethyl-estrasdiene derivatives, methods for their production and pharmaceuticals containing such compounds” (Jenapharm GmbH, priority 1994, dated 1996).
